Results reported in the NIST ThermoML archive (doi:10.1021/je500380x).
Numbers after ± are expanded uncertainties.

Assay: mn = molality of the nth substance listed, in mol/kg
Conditions: 100 kPa, Liquid; for viscosity: Falling or rolling sphere viscometry; for mass density: Vibrating tube method; for electrical conductivity: Alternating current cell with electrodes

CCC(=O)OCCN1CCNCC1 [2-(piperazin-1-yl)ethyl propionate] + CO
Conditions	electrical conductivity [S/m]	mass density [kg/m3]	viscosity [mPa·s]
308.15 K, m1 = 0.05	–	780.29 ± 0.16	–
308.15 K, m1 = 0.1001	–	783.39 ± 0.15	–
308.15 K, m1 = 0.2006	–	789.53 ± 0.15	–
308.15 K, m1 = 0.3003	–	795.62 ± 0.15	–
308.15 K, m1 = 0.3995	–	801.72 ± 0.15	–
308.15 K, m1 = 0.5005	–	807.84 ± 0.15	–
308.15 K, m1 = 0.6006	–	814.12 ± 0.15	–
308.15 K, m1 = 0.7007	–	820.37 ± 0.15	–
308.15 K, m1 = 0.8007	–	826.54 ± 0.14	–
308.15 K, m1 = 0.9008	–	832.74 ± 0.14	–
308.15 K, m1 = 1.001	–	838.83 ± 0.14	0.949 ± 0.012
308.15 K, m1 = 1.2	–	851.28 ± 0.14	1.098 ± 0.014
308.15 K, m1 = 1.401	–	864.42 ± 0.14	1.305 ± 0.016
308.15 K, m1 = 1.6	–	876.97 ± 0.13	1.56 ± 0.019
308.15 K, m1 = 1.801	–	890.31 ± 0.13	1.895 ± 0.023
308.15 K, m1 = 2	–	903.56 ± 0.13	2.346 ± 0.029
308.15 K, m1 = 2.203	–	917.48 ± 0.12	2.912 ± 0.036
308.15 K, m1 = 2.403	–	930.52 ± 0.12	3.753 ± 0.046
308.15 K, m1 = 2.603	–	943.48 ± 0.12	4.841 ± 0.06
308.15 K, m1 = 2.803	–	956.73 ± 0.12	6.372 ± 0.079
308.15 K, m1 = 3.001	–	970.42 ± 0.12	8.863 ± 0.11
313.15 K, m1 = 0.05	0.142 ± 0.0015	775.51 ± 0.16	0.484 ± 0.006
313.15 K, m1 = 0.1001	0.238 ± 0.002	778.61 ± 0.16	0.494 ± 0.006
313.15 K, m1 = 0.2006	0.384 ± 0.004	784.77 ± 0.15	0.522 ± 0.007
313.15 K, m1 = 0.3003	0.498 ± 0.005	790.88 ± 0.15	0.552 ± 0.007
313.15 K, m1 = 0.3995	0.586 ± 0.006	797 ± 0.15	0.585 ± 0.007
313.15 K, m1 = 0.5005	0.661 ± 0.007	803.15 ± 0.15	0.623 ± 0.008
313.15 K, m1 = 0.6006	0.729 ± 0.007	809.45 ± 0.15	0.664 ± 0.008
313.15 K, m1 = 0.7007	0.779 ± 0.008	815.73 ± 0.15	0.706 ± 0.009
313.15 K, m1 = 0.8007	0.823 ± 0.008	821.92 ± 0.15	0.76 ± 0.009
313.15 K, m1 = 0.9008	0.857 ± 0.009	828.14 ± 0.14	0.815 ± 0.01
313.15 K, m1 = 1.001	0.898 ± 0.009	834.22 ± 0.14	0.878 ± 0.011
313.15 K, m1 = 1.2	0.931 ± 0.009	846.77 ± 0.14	1.012 ± 0.013
313.15 K, m1 = 1.401	0.948 ± 0.009	859.97 ± 0.14	1.197 ± 0.015
313.15 K, m1 = 1.6	0.941 ± 0.009	872.59 ± 0.13	1.425 ± 0.018
313.15 K, m1 = 1.801	0.918 ± 0.009	885.98 ± 0.13	1.723 ± 0.021
313.15 K, m1 = 2	0.873 ± 0.009	899.28 ± 0.13	2.12 ± 0.026
313.15 K, m1 = 2.203	0.82 ± 0.008	913.27 ± 0.13	2.614 ± 0.032
313.15 K, m1 = 2.403	0.751 ± 0.008	926.52 ± 0.12	3.343 ± 0.041
313.15 K, m1 = 2.603	0.674 ± 0.007	939.34 ± 0.12	4.274 ± 0.053
313.15 K, m1 = 2.803	0.599 ± 0.006	952.7 ± 0.12	5.571 ± 0.069
313.15 K, m1 = 3.001	–	966.46 ± 0.12	7.662 ± 0.095
313.15 K, m1 = 3.006	0.534 ± 0.005	–	–
318.15 K, m1 = 0.05	0.145 ± 0.0015	770.7 ± 0.16	0.459 ± 0.006
318.15 K, m1 = 0.1001	0.243 ± 0.003	773.8 ± 0.16	0.468 ± 0.006
318.15 K, m1 = 0.2006	0.395 ± 0.004	779.98 ± 0.16	0.493 ± 0.006
318.15 K, m1 = 0.3003	0.511 ± 0.005	786.11 ± 0.15	0.521 ± 0.006
318.15 K, m1 = 0.3995	0.604 ± 0.006	792.25 ± 0.15	0.55 ± 0.007
318.15 K, m1 = 0.5005	0.685 ± 0.007	798.42 ± 0.15	0.584 ± 0.007
318.15 K, m1 = 0.6006	0.754 ± 0.008	804.74 ± 0.15	0.622 ± 0.008
318.15 K, m1 = 0.7007	0.806 ± 0.008	811.06 ± 0.15	0.66 ± 0.008
318.15 K, m1 = 0.8007	0.855 ± 0.009	817.27 ± 0.15	0.708 ± 0.009
318.15 K, m1 = 0.9008	0.891 ± 0.009	823.51 ± 0.14	0.759 ± 0.009
318.15 K, m1 = 1.001	0.936 ± 0.009	829.66 ± 0.14	0.814 ± 0.01
318.15 K, m1 = 1.2	0.975 ± 0.01	842.24 ± 0.14	0.935 ± 0.012
318.15 K, m1 = 1.401	0.994 ± 0.01	855.48 ± 0.14	1.102 ± 0.014
318.15 K, m1 = 1.6	0.995 ± 0.01	868.17 ± 0.13	1.306 ± 0.016
318.15 K, m1 = 1.801	0.971 ± 0.01	881.62 ± 0.13	1.571 ± 0.019
318.15 K, m1 = 2	0.932 ± 0.009	894.99 ± 0.13	1.922 ± 0.024
318.15 K, m1 = 2.203	0.874 ± 0.009	909.04 ± 0.13	2.355 ± 0.029
318.15 K, m1 = 2.403	0.809 ± 0.008	922.36 ± 0.12	2.99 ± 0.037
318.15 K, m1 = 2.603	0.724 ± 0.007	935.25 ± 0.12	3.793 ± 0.047
318.15 K, m1 = 2.803	0.656 ± 0.007	948.64 ± 0.12	4.897 ± 0.061
318.15 K, m1 = 3.001	–	962.47 ± 0.12	6.668 ± 0.082
318.15 K, m1 = 3.006	0.583 ± 0.006	–	–
323.15 K, m1 = 0.05	0.148 ± 0.0015	765.85 ± 0.16	0.437 ± 0.005
323.15 K, m1 = 0.1001	0.244 ± 0.003	768.95 ± 0.16	0.445 ± 0.006
323.15 K, m1 = 0.2006	0.406 ± 0.004	775.15 ± 0.16	0.467 ± 0.006
323.15 K, m1 = 0.3003	0.529 ± 0.005	781.29 ± 0.16	0.492 ± 0.006
323.15 K, m1 = 0.3995	0.625 ± 0.006	787.45 ± 0.15	0.519 ± 0.006
323.15 K, m1 = 0.5005	0.709 ± 0.007	793.64 ± 0.15	0.549 ± 0.007
323.15 K, m1 = 0.6006	0.782 ± 0.008	799.99 ± 0.15	0.583 ± 0.007
323.15 K, m1 = 0.7007	0.833 ± 0.008	806.34 ± 0.15	0.617 ± 0.008
323.15 K, m1 = 0.8007	0.889 ± 0.009	812.57 ± 0.15	0.661 ± 0.008
323.15 K, m1 = 0.9008	0.927 ± 0.009	818.85 ± 0.15	0.707 ± 0.009
323.15 K, m1 = 1.001	0.976 ± 0.01	825.02 ± 0.14	0.757 ± 0.009
323.15 K, m1 = 1.2	1.017 ± 0.01	837.66 ± 0.14	0.866 ± 0.011
323.15 K, m1 = 1.401	1.042 ± 0.01	850.96 ± 0.14	1.016 ± 0.013
323.15 K, m1 = 1.6	1.045 ± 0.01	863.7 ± 0.14	1.199 ± 0.015
323.15 K, m1 = 1.801	1.032 ± 0.01	877.22 ± 0.13	1.436 ± 0.018
323.15 K, m1 = 2	0.996 ± 0.01	890.65 ± 0.13	1.748 ± 0.022
323.15 K, m1 = 2.203	0.933 ± 0.009	904.77 ± 0.13	2.13 ± 0.026
323.15 K, m1 = 2.403	0.866 ± 0.009	918.16 ± 0.12	2.685 ± 0.033
323.15 K, m1 = 2.603	0.781 ± 0.008	931.01 ± 0.12	3.381 ± 0.042
323.15 K, m1 = 2.803	0.708 ± 0.007	944.56 ± 0.12	4.325 ± 0.053
323.15 K, m1 = 3.001	–	958.45 ± 0.12	5.906 ± 0.073
323.15 K, m1 = 3.006	0.636 ± 0.006	–	–
